# Data published in US8445501B2, “Substituted 7-carboxamido-pyrrolo[3,2-d]pyrimidines” (Takeda GmbH, priority 2008, dated 2013).
# Biological target: T1, human PDE5 (Homo sapiens, UniProt O76074)
# T1 construct: from tissue; host or cells: platelets from fresh blood of human donors (lysate, 10,000 g supernatant)
# Experiment: Inhibition of the type 5 phosphodiesterase (PDE5) activity, modified SPA test with platelet lysate
# Format: biochemical
# Details: PDE5 from human platelet lysate, 0.5 μM cGMP
# Summary of the method: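 Human platelet lysate (10,000 g supernatant) as PDE5 source in SPA with 0.5 μM cGMP plus [3H]cGMP tracer, pH 7.4, 5 mM Mg2+, 1 μM motapizone and 10 nM PDE2 inhibitor; 10–20% conversion. 5 min preincubation, 15 min at 37 °C, stopped with SPA beads/IBMX. IC50 by non-linear regression.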
row,Compound,IC50 [nM]
1,"COCC(=O)N[C@H]1CC[C@H](NC(=O)c2c[nH]c3c(-c4c(OCC5CCC5)ccc5c4OCO5)ncnc23)CC1 [Example 128, trans-4-(5-Cyclobutylmethoxy-benzo[1,3]dioxol-4-yl)-5H-pyrrolo[3,2-d]pyrimidine-7-carboxylic acid [4-(2-methoxy-ethanoylamino)-cyclohexyl]-amide]",0.209
2,"CC(=O)N1CCC(NC(=O)c2c[nH]c3c(-c4c(OCC5CCC5)ccc5c4OCO5)ncnc23)CC1 [Example 129, 4-(5-Cyclobutylmethoxy-benzo[1,3]dioxol-4-yl)-5H-pyrrolo[3,2-d]pyrimidine-7-carboxylic acid (1-acetyl-piperidin-4-yl)-amide]",0.389
3,"O=C(NC1CCN(C(=O)C2CC2)CC1)c1c[nH]c2c(-c3c(OCC4CCC4)ccc4c3OCO4)ncnc12 [Example 130, 4-(5-Cyclobutylmethoxy-benzo[1,3]dioxol-4-yl)-5H-pyrrolo[3,2-d]pyrimidine-7-carboxylic acid [1-(1-cyclopropyl-methanoyl)-piperidin-4-yl]-amide]",0.126
4,"COCC(=O)N1CCC(NC(=O)c2c[nH]c3c(-c4c(OCC5CCC5)ccc5c4OCO5)ncnc23)CC1 [Example 131, 4-(5-Cyclobutylmethoxy-benzo[1,3]dioxol-4-yl)-5H-pyrrolo[3,2-d]pyrimidine-7-carboxylic acid [1-(2-methoxy-ethanoyl)-piperidin-4-yl]amide]",0.49
5,"CCOC(=O)N1CCC(NC(=O)c2c[nH]c3c(-c4c(OCC5CCC5)ccc5c4OCO5)ncnc23)CC1 [Example 132, 4-({1-[4-(5-Cyclobutylmethoxy-benzo[1,3]dioxol-4-yl)-5H-pyrrolo[3,2-d]pyrimidin-7-yl]-methanoyl}-amino)-piperidine-1-carboxylic acid ethyl ester]",0.295
6,"CCOc1ccc2c(c1-c1ncnc3c(C(=O)NC4CCN(C(=O)CC)CC4)c[nH]c13)OCO2 [Example 133, 4-(5-Ethoxy-benzo[1,3]dioxol-4-yl)-5H-pyrrolo[3,2-d]pyrimidine-7-carboxylic acid (1-propionyl-piperidin-4-yl)-amide]",0.631
7,"CCOC(=O)N1CCC(NC(=O)c2c[nH]c3c(-c4c(OCC)ccc5c4OCO5)ncnc23)CC1 [Example 134, 4-{[4-(5-Ethoxy-benzo[1,3]dioxol-4-yl)-5H-pyrrolo[3,2-d]pyrimidine-7-carbonyl]-amino}-piperidine-1-carboxylic acid ethyl ester]",0.347
8,"CCOc1ccc2c(c1-c1ncnc3c(C(=O)NC4CCN(C(=O)COC)CC4)c[nH]c13)OCO2 [Example 135, 4-(5-Ethoxy-benzo[1,3]dioxol-4-yl)-5H-pyrrolo[3,2-d]pyrimidine-7-carboxylic acid [1-(2-methoxy-acetyl)piperidin-4-yl]-amide]",2
9,"CCOc1ccc2c(c1-c1ncnc3c(C(=O)N[C@@H]4CCN(C(=O)CC)C4)c[nH]c13)OCO2 [Example 136, 4-(5-Ethoxy-benzo[1,3]dioxol-4-yl)-5H-pyrrolo[3,2-d]pyrimidine-7-carboxylic acid ((R)-1-propionyl-pyrrolidin-3-yl)-amide]",3.72
10,"CCOC(=O)N1CC[C@@H](NC(=O)c2c[nH]c3c(-c4c(OCC)ccc5c4OCO5)ncnc23)C1 [Example 137, (R)-3-{[4-(5-Ethoxy-benzo[1,3]dioxol-4-yl)-5H-pyrrolo[3,2-d]pyrimidine-7-carbonyl]-amino}-pyrrolidine-1-carboxylic acid ethyl ester]",2.24
11,CCOc1ccc2c(c1-c1ncnc3c(C(=O)N[C@@H]4CCN(C(=O)COC)C4)c[nH]c13)OCO2 [Example 138],6.03
12,"CCCOc1ccc2c(c1-c1ncnc3c(C(=O)NC4CCN(C(=O)CC)CC4)c[nH]c13)OCO2 [Example 139, 4-(5-Propoxy-benzo[1,3]dioxol-4-yl)-5H-pyrrolo[3,2-d]pyrimidine-7-carboxylic acid (1-propionyl-piperidin-4-yl)-amide]",0.204
13,"CCCOc1ccc2c(c1-c1ncnc3c(C(=O)NC4CCN(C(=O)OCC)CC4)c[nH]c13)OCO2 [Example 140, 4-{[4-(5-Propoxy-benzo[1,3]dioxol-4-yl)-5H-pyrrolo[3,2-d]pyrimidine-7-carbonyl]-amino}-piperidine-1-carboxylic acid ethyl ester]",0.148
14,"CCCOc1ccc2c(c1-c1ncnc3c(C(=O)N[C@@H]4CCN(C(=O)CC)C4)c[nH]c13)OCO2 [Example 141, 4-(5-Propoxy-benzo[1,3]dioxol-4-yl)-5H-pyrrolo[3,2-d]pyrimidine-7-carboxylic acid ((R)-1-propionyl-pyrrolidin-3-yl)-amide]",0.933
15,"CCCOc1ccc2c(c1-c1ncnc3c(C(=O)N[C@@H]4CCN(C(=O)OCC)C4)c[nH]c13)OCO2 [Example 142, (R)-3-{[4-(5-Propoxy-benzo[1,3]dioxol-4-yl)-5H-pyrrolo[3,2-d]pyrimidine-7-carbonyl]amino}-pyrrolidine-1-carboxylic acid ethyl ester]",0.617
16,"CCCOc1ccc2c(c1-c1ncnc3c(C(=O)N[C@@H]4CCN(C(=O)COC)C4)c[nH]c13)OCO2 [Example 143, 4-(5-Propoxy-benzo[1,3]dioxol-4-yl)-5H-pyrrolo[3,2-d]pyrimidine-7-carboxylic acid [(R)-1-(2-methoxy-acetyl)-pyrrolidin-3-yl]amide]",1.51
17,"CCCCOc1ccc2c(c1-c1ncnc3c(C(=O)NC4CCN(C(=O)CC)CC4)c[nH]c13)OCO2 [Example 144, 4-(5-Butoxy-benzo[1,3]dioxol-4-yl)-5H-pyrrolo[3,2-d]pyrimidine-7-carboxylic acid (1-propionyl-piperidin-4-yl)-amide]",0.115
18,"CCCCOc1ccc2c(c1-c1ncnc3c(C(=O)NC4CCN(C(=O)OCC)CC4)c[nH]c13)OCO2 [Example 145, 4-{[4-(5-Butoxy-benzo[1,3]dioxol-4-yl)-5H-pyrrolo[3,2-d]pyrimidine-7-carbonyl]-amino}-piperidine-1-carboxylic acid ethyl ester]",0.1
19,"CCCCOc1ccc2c(c1-c1ncnc3c(C(=O)NC4CCN(C=O)CC4)c[nH]c13)OCO2 [Example 146, 4-(5-Butoxy-benzo[1,3]dioxol-4-yl)-5H-pyrrolo[3,2-d]pyrimidine-7-carboxylic acid (1-formyl-piperidin-4-yl)-amide]",0.229
20,"CCCCOc1ccc2c(c1-c1ncnc3c(C(=O)NC4CCCN(C(=O)CC)C4)c[nH]c13)OCO2 (stereo not drawn) [Example 147, 4-(5-Butoxy-benzo[1,3]dioxol-4-yl)-5H-pyrrolo[3,2-d]pyrimidine-7-carboxylic acid (1-propionyl-piperidin-3-yl)-amide]",0.24
21,"CCCCOc1ccc2c(c1-c1ncnc3c(C(=O)NC4CCCN(C(=O)OCC)C4)c[nH]c13)OCO2 (stereo not drawn) [Example 148, 3-{[4-(5-Butoxy-benzo[1,3]dioxol-4-yl)-5H-pyrrolo[3,2-d]pyrimidine-7-carbonyl]-amino}-piperidine-1-carboxylic acid ethyl ester]",0.407
22,"CCCCOc1ccc2c(c1-c1ncnc3c(C(=O)NC4CCCN(C(=O)COC)C4)c[nH]c13)OCO2 (stereo not drawn) [Example 149, 4-(5-Butoxy-benzo[1,3]dioxol-4-yl)-5H-pyrrolo[3,2-d]pyrimidine-7-carboxylic acid [1-(2-methoxy-acetyl)piperidin-3-yl]-amide]",0.295
23,"CCCCOc1ccc2c(c1-c1ncnc3c(C(=O)N[C@@H]4CCN(C(=O)CC)C4)c[nH]c13)OCO2 [Example 150, 4-(5-Butoxy-benzo[1,3]dioxol-4-yl)-5H-pyrrolo[3,2-d]pyrimidine-7-carboxylic acid ((R)-1-propionyl-pyrrolidin-3-yl)-amide]",0.389
24,"CCCCOc1ccc2c(c1-c1ncnc3c(C(=O)N[C@@H]4CCN(C(=O)OCC)C4)c[nH]c13)OCO2 [Example 151, (R)-3-{[4-(5-Butoxy-benzo[1,3]dioxol-4-yl)-5H-pyrrolo[3,2-d]pyrimidine-7-carbonyl]amino}-pyrrolidine-1-carboxylic acid ethyl ester]",0.295
25,"COCCOc1cc(OC)ccc1-c1ncnc2c(C(=O)N[C@H]3CC[C@@H](NC(C)=O)CC3)c[nH]c12 [Example 152, cis-4-[4-Methoxy-2-(2-methoxy-ethoxy)-phenyl]-5H-pyrrolo[3,2-d]pyrimidine-7-carboxylic acid (4-acetylamino-cyclohexyl)-amide]",14.5
26,"COCCOc1cc(OC)ccc1-c1ncnc2c(C(=O)N[C@H]3CC[C@@H](NC(=O)C4CC4)CC3)c[nH]c12 [Example 153, cis-4-[4-Methoxy-2-(2-methoxy-ethoxy)-phenyl]-5H-pyrrolo[3,2-d]pyrimidine-7-carboxylic acid [4-(cyclopropanecarbonyl-amino)cyclohexyl]-amide]",6.17
27,"COCCOc1cc(OC)ccc1-c1ncnc2c(C(=O)N[C@H]3CC[C@@H](NC(=O)COC)CC3)c[nH]c12 [Example 154, cis-4-[4-Methoxy-2-(2-methoxy-ethoxy)-phenyl]-5H-pyrrolo[3,2-d]pyrimidine-7-carboxylic acid [4-(2-methoxy-acetylamino)-cyclohexyl]-amide]",17
28,"COCCOc1cc(OC)ccc1-c1ncnc2c(C(=O)N[C@H]3CC[C@H](NC(C)=O)CC3)c[nH]c12 [Example 155, trans-4-[4-Methoxy-2-(2-methoxy-ethoxy)-phenyl]-5H-pyrrolo[3,2-d]pyrimidine-7-carboxylic acid (4-acetylamino-cyclohexyl)-amide]",9.55
29,"COCCOc1cc(OC)ccc1-c1ncnc2c(C(=O)N[C@H]3CC[C@H](NC(=O)C4CC4)CC3)c[nH]c12 [Example 156, trans-4-[4-Methoxy-2-(2-methoxy-ethoxy)-phenyl]-5H-pyrrolo[3,2-d]pyrimidine-7-carboxylic acid [4-(cyclopropanecarbonyl-amino)cyclohexyl]-amide]",6.61
30,"COCCOc1cc(OC)ccc1-c1ncnc2c(C(=O)N[C@H]3CC[C@H](NC(=O)COC)CC3)c[nH]c12 [Example 157, trans-4-[4-Methoxy-2-(2-methoxy-ethoxy)-phenyl]-5H-pyrrolo[3,2-d]pyrimidine-7-carboxylic acid [4-(2-methoxy-acetylamino)-cyclohexyl]-amide]",15.5
